Laboratory results from paper PMC2673089 (Journal of pharmaceutical sciences, 2008).

Columns and labels:
[1] = tested on: pooled male Sprague–Dawley rat liver microsomes; assay: Metabolism in pooled male rat liver microsomes; format: in vitro ADME
human CYP2E1 = human CYP2E1 (Homo sapiens, UniProt P05181); assay: Metabolism by recombinant human CYP2E1 Supersomes; format: in vitro ADME
muscarinic M1 receptors = settings: read-out: M1 Ki; mean ± SEM; cited from earlier work
human CYP2D6 = human CYP2D6 (Homo sapiens, UniProt P10635); assay: Metabolism by recombinant human CYP2D6 Supersomes; format: in vitro ADME
[2] = Pharmacokinetics and brain uptake after i.v. dosing; format: in vivo, male Sprague–Dawley rats; settings: for AUC0–1440 min (plasma): noncompartmental analysis
histamine H1 receptors = settings: read-out: H1 Ki; mean ± SEM; cited from earlier work
MDCK-MDR1 monolayers = assay: Bidirectional transport and verapamil inhibition across MDCK-MDR1 monolayers; format: in vitro ADME
rat CYP2D1 = target: T1, rat CYP2D1 (Rattus norvegicus, UniProt P10633); assay: Metabolism by recombinant rat CYP2D1 Supersomes; format: in vitro ADME
T1 sequence (P10633 1-504): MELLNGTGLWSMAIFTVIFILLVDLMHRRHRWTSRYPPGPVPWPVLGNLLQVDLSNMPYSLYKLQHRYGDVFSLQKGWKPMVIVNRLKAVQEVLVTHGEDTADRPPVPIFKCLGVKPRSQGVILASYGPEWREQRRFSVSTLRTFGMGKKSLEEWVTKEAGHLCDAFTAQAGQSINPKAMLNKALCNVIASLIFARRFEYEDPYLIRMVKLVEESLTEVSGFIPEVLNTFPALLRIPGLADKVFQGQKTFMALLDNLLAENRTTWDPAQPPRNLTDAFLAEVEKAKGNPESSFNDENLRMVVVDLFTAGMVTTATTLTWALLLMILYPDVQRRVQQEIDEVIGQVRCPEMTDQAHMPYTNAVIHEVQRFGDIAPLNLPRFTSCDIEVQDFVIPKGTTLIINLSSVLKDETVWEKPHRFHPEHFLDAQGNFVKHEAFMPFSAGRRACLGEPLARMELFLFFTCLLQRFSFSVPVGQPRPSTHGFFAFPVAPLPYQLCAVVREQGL

DA uptake = settings: read-out: DA Uptake IC50; mean ± SEM; cited from earlier work
rat CYP2C11 = target: T2, rat CYP2C11 (Rattus norvegicus, UniProt P08683); assay: Metabolism by recombinant rat CYP2C11 Supersomes; format: in vitro ADME
T2 sequence (P08683 1-500): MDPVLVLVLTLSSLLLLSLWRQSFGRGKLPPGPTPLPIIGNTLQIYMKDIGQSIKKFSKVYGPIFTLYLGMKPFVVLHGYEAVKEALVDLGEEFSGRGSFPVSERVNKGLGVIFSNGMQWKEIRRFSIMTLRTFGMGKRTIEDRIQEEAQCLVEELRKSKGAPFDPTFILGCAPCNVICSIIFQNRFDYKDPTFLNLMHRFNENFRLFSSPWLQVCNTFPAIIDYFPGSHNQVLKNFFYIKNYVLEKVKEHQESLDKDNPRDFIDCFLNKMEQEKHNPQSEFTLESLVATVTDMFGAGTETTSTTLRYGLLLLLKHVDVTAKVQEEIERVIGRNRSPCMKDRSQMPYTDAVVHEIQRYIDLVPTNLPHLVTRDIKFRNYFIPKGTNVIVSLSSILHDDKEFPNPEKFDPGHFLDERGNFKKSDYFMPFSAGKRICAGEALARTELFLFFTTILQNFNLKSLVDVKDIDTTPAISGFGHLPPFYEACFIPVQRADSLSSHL

Caco-2 monolayers = assay: Bidirectional transport and verapamil inhibition across Caco-2 monolayers; format: in vitro ADME
NET = settings: read-out: NET Ki; mean ± SEM; cited from earlier work
rat CYP1A2 = target: T3, rat CYP1A2 (Rattus norvegicus, UniProt P04799); assay: Metabolism by recombinant rat CYP1A2 Supersomes; format: in vitro ADME
T3 sequence (P04799 1-513): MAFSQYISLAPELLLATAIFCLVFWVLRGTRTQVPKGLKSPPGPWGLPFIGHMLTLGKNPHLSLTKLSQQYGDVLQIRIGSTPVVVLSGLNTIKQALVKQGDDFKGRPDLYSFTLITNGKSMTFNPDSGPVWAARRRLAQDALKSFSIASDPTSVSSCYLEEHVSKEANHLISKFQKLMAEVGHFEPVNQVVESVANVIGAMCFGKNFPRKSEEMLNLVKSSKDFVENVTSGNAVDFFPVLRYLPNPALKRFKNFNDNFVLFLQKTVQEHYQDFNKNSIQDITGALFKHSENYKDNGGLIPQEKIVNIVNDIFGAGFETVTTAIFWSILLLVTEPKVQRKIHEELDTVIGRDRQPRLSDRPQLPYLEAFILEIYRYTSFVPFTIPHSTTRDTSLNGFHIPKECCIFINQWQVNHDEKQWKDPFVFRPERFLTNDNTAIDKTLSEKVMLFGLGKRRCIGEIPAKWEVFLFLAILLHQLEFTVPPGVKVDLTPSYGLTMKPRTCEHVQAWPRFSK

[3] = population PK estimate (% CV), i.v. 5 and 10 mg/kg combined, n = 54 rats
[4] = MDCK-MDR1, 0.1 mM, absence of verapamil, mean ± SD (n = 3)
[5] = 0.1 mM, absence of verapamil, mean ± SD (n = 3)

human CYP2D6, sequence (P10635 whole entry): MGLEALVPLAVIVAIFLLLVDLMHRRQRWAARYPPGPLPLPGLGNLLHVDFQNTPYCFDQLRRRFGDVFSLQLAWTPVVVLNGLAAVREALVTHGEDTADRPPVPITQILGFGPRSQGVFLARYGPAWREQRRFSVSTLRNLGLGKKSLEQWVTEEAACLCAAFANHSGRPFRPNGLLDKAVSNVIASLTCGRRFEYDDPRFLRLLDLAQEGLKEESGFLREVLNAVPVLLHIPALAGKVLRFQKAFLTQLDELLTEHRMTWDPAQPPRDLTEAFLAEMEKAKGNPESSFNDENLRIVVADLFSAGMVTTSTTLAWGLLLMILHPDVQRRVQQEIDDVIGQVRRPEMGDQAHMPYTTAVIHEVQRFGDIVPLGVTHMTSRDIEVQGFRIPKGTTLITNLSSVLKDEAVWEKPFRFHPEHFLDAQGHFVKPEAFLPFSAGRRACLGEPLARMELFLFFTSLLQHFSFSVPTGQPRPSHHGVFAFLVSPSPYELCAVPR
human CYP2E1, sequence (P05181 whole entry): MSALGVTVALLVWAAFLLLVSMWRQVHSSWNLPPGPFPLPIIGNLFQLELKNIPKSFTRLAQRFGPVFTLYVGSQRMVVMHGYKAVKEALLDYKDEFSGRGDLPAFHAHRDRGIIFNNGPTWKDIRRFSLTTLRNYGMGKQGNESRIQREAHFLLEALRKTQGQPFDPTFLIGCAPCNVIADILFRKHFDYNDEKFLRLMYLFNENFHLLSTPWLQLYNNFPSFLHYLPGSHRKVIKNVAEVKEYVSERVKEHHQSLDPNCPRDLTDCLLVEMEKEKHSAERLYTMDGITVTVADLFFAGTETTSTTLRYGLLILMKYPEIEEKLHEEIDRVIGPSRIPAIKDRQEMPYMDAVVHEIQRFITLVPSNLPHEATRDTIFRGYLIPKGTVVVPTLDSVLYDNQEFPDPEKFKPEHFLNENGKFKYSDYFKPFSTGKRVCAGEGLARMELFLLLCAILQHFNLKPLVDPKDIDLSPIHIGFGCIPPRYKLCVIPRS

## CC(C)[C@@H](N)CN1C2CCC1CC(OC(c1ccc(F)cc1)c1ccc(F)cc1)C2 (stereo partly drawn) [GA2-50, N-((R)-2″-amino-3″-methyl-n-butyl)-3α-[(bis-4′-fluorophenyl)methoxy]tropane]
[1]; Pooled male RLM 0.8 mg/mL, 4 μM, mean ± SD n = 3
  Intrinsic Clearance: 5.96 ± 0.56 microliters per minute per milligram of protein
[1]; higher in rat than in human liver microsomes
  Intrinsic clearance in pooled male RLM relative to HLM: 1.9 fold
[1]; pooled male rat liver microsomes, comparator values ref 26
  Intrinsic clearance, fold lower than 4′,4″-diCl BZT: 3.6 fold
Human CYP2E1; Human CYP 2E1 50 pmol/mL, 4 μM
  Intrinsic Clearance: 0.09 ± 0.02 (c,d) microliters per minute per picomole of P450
Human CYP2E1; human CYP2E1, 10 μM, 50 pmol/mL P450, p < 0.05
  Substrate disappearance after 60 min incubation vs control: statistically significant disappearance
Muscarinic M1 receptors
  Ki: 4020 ± 592 nM
Human CYP2D6; Human CYP 2D6 50 pmol/mL, 4 μM
  Intrinsic Clearance: 0.15 ± 0.02 (b) microliters per minute per picomole of P450
Human CYP2D6; human CYP2D6, 10 μM, 50 pmol/mL P450, p < 0.05
  Substrate disappearance after 60 min incubation vs control: statistically significant disappearance
[2]; 5 mg/kg i.v., AUC0–1440 min brain/plasma
  brain-to-plasma partition coefficient (Ri): 10.1
[2]; 5 mg/kg i.v.
  AUC0–1440 min (plasma): 141.8 µg·min/mL
[2]; 10 mg/kg i.v.
  maximal total brain concentration: approximately 5 μg/g
  AUC0–1440 min (plasma): 258.0 µg·min/mL
[2]; 10 mg/kg i.v., AUC0–1440 min brain/plasma
  brain-to-plasma partition coefficient (Ri): 9.6
[2]; Table 4, secondary parameter from NONMEM empirical Bayes estimates, i.v., rats
  Vss: 622 mL/min/kg
[2]; i.v. 5 or 10 mg/kg
  signs of toxicity: did not show any signs of toxicity
[2]; overall, dose not specified
  brain-to-plasma partition coefficient (Ri): ~ 10
[2]; [3]
  CL: 1.34 (9.3) L/h/kg
  Q: 7.8 (19.9) L/h/kg
  Vc: 8.09 (13.6) L/kg
  Vp: 27.9 (10.5) L/kg
[2]; secondary parameter from NONMEM empirical Bayes estimates, i.v., rats
  t1/2 (elimination half-life): 19.2 h
Histamine H1 receptors
  Ki: 218 ± 15.5 nM
MDCK-MDR1 monolayers; MDCK-MDR1
  Permeability relative to JHW 025: around 6.8 fold
MDCK-MDR1 monolayers; MDCK-MDR1, 0.1 mM, Papp(B-A)/Papp(A-B)
  Efflux Ratio: 3.4
MDCK-MDR1 monolayers; [4]
  Papp A-B: 34.01 ± 2.78 × 10^−6 cm/s
  Papp B-A: 116.97 ± 5.23 × 10^−6 cm/s
MDCK-MDR1 monolayers; MDCK-MDR1, verapamil 200 μM
  Enhancement ratio of A-B transport by verapamil: 2.3
MDCK-MDR1 monolayers; polarized transport across MDCK-MDR1 and Caco-2, verapamil-sensitive
  P-gp substrate status: substrate for the efflux transporter P-gp
Rat CYP2D1; Rat CYP 2D1 50 pmol/mL, 4 μM
  Intrinsic Clearance: 0.11 ± 0.02 (c) microliters per minute per picomole of P450
Rat CYP2D1; rat CYP2D1, 10 μM, 50 pmol/mL P450, p < 0.05
  Substrate disappearance after 60 min incubation vs control: statistically significant disappearance
DA uptake
  IC50: 20.7 ± 2.85 nM
Rat CYP2C11; Rat CYP 2C11 50 pmol/mL, 4 μM
  Intrinsic Clearance: 0.23 ± 0.01 (a) microliters per minute per picomole of P450
Rat CYP2C11; rat CYP2C11, 10 μM, 50 pmol/mL P450, p < 0.05
  Substrate disappearance after 60 min incubation vs control: statistically significant disappearance
Rat CYP2C11; rat CYP2C11, comparator values ref 26
  Intrinsic clearance, fold lower than 4′,4″-diCl BZT: 6.3 fold
Caco-2 monolayers
  Permeability relative to JHW 025: > 4 fold
Caco-2 monolayers; 0.1 mM, Papp(B-A)/Papp(A-B)
  Efflux Ratio: 8.3
Caco-2 monolayers; [5]
  Papp A-B: 1.37 ± 0.08 × 10^−6 cm/s
  Papp B-A: 11.36 ± 1.41 × 10^−6 cm/s
Caco-2 monolayers; verapamil 200 μM
  Enhancement ratio of A-B transport by verapamil: 3.4
NET
  Ki: 2130 ± 160 nM
Rat CYP1A2; Rat CYP 1A2 50 pmol/mL, 4 μM
  Intrinsic Clearance: 0.06 ± 0.01 (d) microliters per minute per picomole of P450
Rat CYP1A2; rat CYP1A2, 10 μM, 50 pmol/mL P450, p < 0.05
  Substrate disappearance after 60 min incubation vs control: statistically significant disappearance
